Read-outs that look alike come from different tables or passages of the source.
Experiments:
[1] = 45-day oral tolerability and electroretinogram study, head-to-head with vigabatrin; assay type: in vivo, mice
Experimental: (§1) In adult mice, an acute no-observed adverse-effect level (NOAEL) of 6 mg/kg by mouth was determined by evaluating behavioral neurotoxicity in naive animals. […] Based on these findings, it is clear that the inhibition of GABA-AT by (S)-3-amino-4-(difluoromethylenyl)cyclopent-1-ene-1-carboxylic acid is not necessarily associated with vigabatrin-like retinal toxicity.

[2] = Clearance in rat hepatocytes; assay type: in vitro ADME; conditions: read-out: intrinsic clearance (CIint)
[3] = Pharmacokinetics after oral administration in rat; conditions: in vivo
[4] = Plasma protein binding, rat; assay type: in vitro ADME; conditions: 37° C., one range given for rat, dog and human, read-out: bound to plasma proteins
Experimental: (§2) (S)-3-amino-4-(difluoromethylenyl)cyclopent-1-ene-1-carboxylic acid was minimally bound (4 to 20%) to proteins in rat, dog, and human plasma at 37° C.

Salmonella typhimurium = assay type: cell-based
Experimental: (§3) A non-GLP safety assessment for changes in retinal function and structure were evaluated in rats. […] In addition, toxicity of (S)-3-amino-4-(difluoromethylenyl)cyclopent-1-ene-1-carboxylic acid was assessed in non-GLP single-dose and repeat dose toxicity studies in rats and dogs. […] (S)-3-amino-4-(difluoromethylenyl)cyclopent-1-ene-1-carboxylic acid was not genotoxic in the Ames assay. The Ames assay is a well-known method that uses several strains of the bacterium Salmonella typhimurium to test whether a given chemical can cause mutations in the DNA of the test organism. No CNS or cardiovascular safety liabilities were identified in an Irwin study in mice. The Irwin observation test is commonly used to evaluate the effects of a new substance on behavior and physiological function. Roux et al., Curr Protoc Pharmacol. 2005 Jan. 1; Chapter 10:Unit 10.

[5] = Clearance in human hepatocytes; assay type: in vitro ADME; conditions: read-out: intrinsic clearance (CIint)
[6] = Acute behavioral neurotoxicity in naive adult mice; conditions: in vivo, oral
Experimental: as §1

[7] = Pharmacokinetics after oral administration in dog; assay type: in vivo
[8] = Plasma protein binding, dog; assay type: in vitro ADME; conditions: 37° C., one range given for rat, dog and human, read-out: bound to plasma proteins
Experimental: as §2

hERG channel = hERG channel (Homo sapiens, UniProt Q12809); experiment: hERG channel activity in vitro
[9] = Non-GLP 10-day repeat dose toxicity study in dogs; assay type: in vivo
Experimental: as §3

[10] = Genetic toxicity in vitro
[11] = Clearance in dog hepatocytes; assay type: in vitro ADME; conditions: read-out: intrinsic clearance (CIint)
[12] = Plasma protein binding, human; assay type: in vitro ADME; conditions: 37° C., one range given for rat, dog and human, read-out: bound to plasma proteins
Experimental: as §2

[13] = Non-GLP 10-day repeat dose toxicity study in rats; assay type: in vivo; conditions: for human dose converted from tolerated rat dose: Reagan-Shaw conversion
Experimental: as §3

[14] = Non-GLP safety assessment of retinal function and structure; assay type: in vivo, rats
Experimental: as §3

Chain of hERG channel (Q12809 whole entry): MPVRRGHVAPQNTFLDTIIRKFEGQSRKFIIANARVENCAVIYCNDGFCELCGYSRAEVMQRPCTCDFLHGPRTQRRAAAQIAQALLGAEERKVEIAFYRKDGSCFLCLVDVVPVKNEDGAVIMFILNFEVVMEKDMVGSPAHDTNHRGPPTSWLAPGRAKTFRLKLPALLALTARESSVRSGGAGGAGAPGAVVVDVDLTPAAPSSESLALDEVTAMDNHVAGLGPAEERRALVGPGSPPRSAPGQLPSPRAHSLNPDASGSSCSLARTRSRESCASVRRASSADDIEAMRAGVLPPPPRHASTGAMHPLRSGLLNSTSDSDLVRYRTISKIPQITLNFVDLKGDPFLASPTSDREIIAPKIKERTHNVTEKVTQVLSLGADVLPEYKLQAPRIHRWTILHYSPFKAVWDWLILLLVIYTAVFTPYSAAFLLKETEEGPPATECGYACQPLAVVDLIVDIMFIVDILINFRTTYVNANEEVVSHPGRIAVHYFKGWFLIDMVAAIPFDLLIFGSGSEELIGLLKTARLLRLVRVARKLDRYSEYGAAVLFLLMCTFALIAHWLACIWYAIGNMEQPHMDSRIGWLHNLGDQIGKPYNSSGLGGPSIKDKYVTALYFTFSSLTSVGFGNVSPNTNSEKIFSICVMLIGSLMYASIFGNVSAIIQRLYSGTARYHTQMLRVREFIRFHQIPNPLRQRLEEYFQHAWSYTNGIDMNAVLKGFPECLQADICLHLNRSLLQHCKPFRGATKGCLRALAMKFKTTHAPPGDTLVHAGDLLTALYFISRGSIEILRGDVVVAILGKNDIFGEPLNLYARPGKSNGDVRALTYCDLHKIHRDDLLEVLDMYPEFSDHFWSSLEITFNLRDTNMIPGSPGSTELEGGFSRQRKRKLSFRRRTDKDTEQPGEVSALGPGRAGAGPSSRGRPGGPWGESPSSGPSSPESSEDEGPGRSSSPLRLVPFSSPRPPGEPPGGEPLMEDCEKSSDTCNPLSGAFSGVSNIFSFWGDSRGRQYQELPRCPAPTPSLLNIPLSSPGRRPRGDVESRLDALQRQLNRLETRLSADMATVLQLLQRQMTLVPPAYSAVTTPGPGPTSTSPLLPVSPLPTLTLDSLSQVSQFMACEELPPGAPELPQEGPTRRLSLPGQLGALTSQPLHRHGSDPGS

In the case of C=CC(N)CCC(=O)O (stereo not shown) [vigabatrin, reference compound], the “retinal B-wave amplitudes” value ([1]; mouse, in vivo) is reported as “reductions in retinal B-wave amplitudes” and the weight ([1]; mouse, in vivo) is reported as “marked reduction in weight”.

Work on N[C@H]1C=C(C(=O)O)CC1=C(F)F [(S)-3-amino-4-(difluoromethylenyl)cyclopent-1-ene-1-carboxylic acid] yielded a CLint scaled [2] of 24.3 mL/min/kg, a half-life ([3]; read-out: elimination half-life (t½)) of 75 to 90 min and a Tmax ([3]; read-out: time of maximum concentration (Tmax)) of 15 to 30 min. The fraction unbound [4] was 0.8 to 0.96, the “genotoxicity in the Ames assay” value (Salmonella typhimurium) was “not genotoxic” and the tolerability ([1]; 1 mg/kg/d by mouth for 45 days) was “well tolerated”. The “human dose converted from tolerated mouse dose” value ([1]; from 1 mg/kg/day mouse, Reagan-Shaw conversion) was 0.08 mg/kg/day, the CLint scaled [5] was 13.1 mL/min/kg and the NOAEL ([6]; from 6 mg/kg mouse, Reagan-Shaw conversion, read-out: human dose converted from mouse NOAEL) was 0.49 mg/kg. The NOAEL ([6]; mouse, adult mice, by mouth, behavioral neurotoxicity, read-out: acute no-observed adverse-effect level (NOAEL)) was 6 mg/kg, the “exposure (AUC basis) in dogs compared with rats” value ([7]; equivalent oral doses) was “higher exposure” and the half-life ([7]; in vivo, dog, oral administration, read-out: elimination half-life (t½)) was 75 to 90 min. For the same molecule, the Tmax ([7]; in vivo, dog, oral administration, read-out: time of maximum concentration (Tmax)) was 15 to 30 min, the fraction unbound [8] was 0.8 to 0.96 and the hERG channel activity (hERG channel) was “No evidence of genetic toxicity or hERG channel activity”. The “well tolerated dose, dogs” value ([9]; 10-day dosing, male and female dogs) was “up to 1.0 mg/kg”, the “human dose converted from tolerated dog dose” value ([9]; from 1 mg/kg dog, Reagan-Shaw conversion) was 1.54 mg/kg and the genetic toxicity [10] was “No evidence of genetic toxicity”. For the same molecule, the CLint scaled [11] was 8.97 mL/min/kg, the fraction unbound [12] was 0.8 to 0.96 and the “well tolerated dose, female rats” value ([13]; 10-day dosing, female rats) was at most 10 mg/kg. For the same molecule, the “well tolerated dose, male rats” value ([13]; 10-day dosing, male rats) was “up to 15 mg/kg”, the “human dose converted from tolerated rat dose” value ([13]; from 10 mg/kg rat) was 1.62 mg/kg and the “human dose converted from tolerated rat dose” value ([13]; from 15 mg/kg rat) was 2.4 mg/kg. For the same molecule, the “human dose converted from tolerated rat dose” value ([14]; from 1 mg/kg/day rat (so in the source), Reagan-Shaw conversion) was 0.48 mg/kg/day and the “well tolerated dose for all assessed ocular endpoints” value ([14]; rats, 45 days, fundoscopy, ERG, OCT and histological assessments, initial results) was “up to 3 mg/kg/day”.

From patent US20240009160A1, “USE OF (S)-3-AMINO-4-(DIFLUOROMETHYLENYL)CYCLOPENT-1-ENE-1-CARBOXYLIC ACID IN THE TREATMENT OF CANCER” (Ovid Therapeutics, Inc., priority 2022, published 2024)
